Columns and labels:
Test in all cases: cells
COLO-792 = format: functional, cell-based, Homo sapiens; settings: Homo sapiens, COLO-792
Description: SANGER: Inhibition of human COLO-792 cell growth in a cell viability assay.

CTB-1 = format: functional, cell-based; settings: Homo sapiens
Description: SANGER: Inhibition of human CTB-1 cell growth in a cell viability assay.

DMS-114 = format: functional, cell-based, Homo sapiens; settings: Homo sapiens, DMS-114
DOK = format: functional, cell-based, Homo sapiens; settings: Homo sapiens, DOK;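 further: cell viability assay read-out, values reflect inhibition of cell growth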
Description: SANGER: Inhibition of human DOK cell growth in a cell viability assay.

DSH1 = format: functional, cell-based, Homo sapiens; settings: Homo sapiens, DSH1;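 further: growth inhibition of human DSH1 cells, measured with a cell viability readout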
Description: SANGER: Inhibition of human DSH1 cell growth in a cell viability assay.

ES3 = format: functional, cell-based, Homo sapiens; settings: Homo sapiens, ES3;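 further: growth inhibition of ES3 cells, read out with a cell viability assay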
Description: SANGER: Inhibition of human ES3 cell growth in a cell viability assay.

ES4 = format: functional, cell-based, Homo sapiens; settings: Homo sapiens, ES4;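 further: growth inhibition of human ES4 cells, read out by a cell viability assay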
Description: SANGER: Inhibition of human ES4 cell growth in a cell viability assay.

H4 = format: functional, cell-based; settings: Homo sapiens
Description: SANGER: Inhibition of human H4 cell growth in a cell viability assay.

HCC1419 = format: functional, cell-based, Homo sapiens; settings: Homo sapiens, HCC1419;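 further: growth inhibition of human HCC1419 cells, read out as cell viability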
Description: SANGER: Inhibition of human HCC1419 cell growth in a cell viability assay.

HCC2157 = format: functional, cell-based; settings: Homo sapiens;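 further: growth inhibition of the cancer cell line, read out as cell viability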
Description: SANGER: Inhibition of human HCC2157 cell growth in a cell viability assay.

HEC-1 = format: functional, cell-based, Homo sapiens; settings: Homo sapiens, HEC-1;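 further: growth inhibition of the cell line, read out with a cell viability assay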
Description: SANGER: Inhibition of human HEC-1 cell growth in a cell viability assay.

HOP-62 = format: functional, cell-based, Homo sapiens; settings: Homo sapiens, HOP-62;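 further: cell growth inhibition determined with a viability assay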
Description: SANGER: Inhibition of human HOP-62 cell growth in a cell viability assay.

HT1197 = format: functional, cell-based, Homo sapiens, HT-1197; settings: Homo sapiens, HT1197
Description: SANGER: Inhibition of human HT-1197 cell growth in a cell viability assay.

Hs-578T = format: functional, cell-based, Homo sapiens; settings: Homo sapiens, Hs-578T
Description: SANGER: Inhibition of human Hs-578-T cell growth in a cell viability assay.

HuO-3N1 = format: functional, cell-based, Homo sapiens; settings: Homo sapiens, HuO-3N1;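 further: cell viability readout used to measure how strongly compounds suppress proliferation of human HuO-3N1 cells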
Description: SANGER: Inhibition of human HuO-3N1 cell growth in a cell viability assay.

JAR = format: functional, cell-based, Homo sapiens; settings: Homo sapiens, JAR;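 further: growth inhibition of human JAR cells determined with a cell viability assay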
Description: SANGER: Inhibition of human JAR cell growth in a cell viability assay.

KM-H2 = format: functional, cell-based; settings: Homo sapiens;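 further: growth inhibition of KM-H2 cells, read out by a cell viability assay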
Description: SANGER: Inhibition of human KM-H2 cell growth in a cell viability assay.

KYSE-140 = format: functional, cell-based, Homo sapiens; settings: Homo sapiens, KYSE-140;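 further: cell viability assay measuring growth inhibition in human KYSE-140 cells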
Description: SANGER: Inhibition of human KYSE-140 cell growth in a cell viability assay.

KYSE-150 cell line = format: functional, cell-based, Homo sapiens; settings: Homo sapiens, KYSE-150;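 further: growth inhibition of human KYSE-150 cells, read out with a cell viability assay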
Description: SANGER: Inhibition of human KYSE-150 cell growth in a cell viability assay.

KYSE-450 = format: functional, cell-based; settings: Homo sapiens;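 further: cell growth inhibition measured by a viability assay in human KYSE-450 cells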
Description: SANGER: Inhibition of human KYSE-450 cell growth in a cell viability assay.

LCLC-103H cell line = format: functional, cell-based, Homo sapiens; settings: Homo sapiens, LCLC-103H
Description: SANGER: Inhibition of human LCLC-103H cell growth in a cell viability assay.

LS-123 = format: functional, cell-based, Homo sapiens; settings: Homo sapiens, LS-123
Description: SANGER: Inhibition of human LS-123 cell growth in a cell viability assay.

MDA-MB-231 = format: functional, cell-based, Homo sapiens; settings: Homo sapiens, MDA-MB-231
Description: SANGER: Inhibition of human MDA-MB-231 cell growth in a cell viability assay.

MFH-ino = format: functional, cell-based; settings: Homo sapiens;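 further: growth inhibition of human MFH-ino cells, read out by a cell viability assay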
Description: SANGER: Inhibition of human MFH-ino cell growth in a cell viability assay.

MSTO-211H = format: functional, cell-based, Homo sapiens; settings: Homo sapiens, MSTO-211H
Description: SANGER: Inhibition of human MSTO-211H cell growth in a cell viability assay.

NCI-H1793 = format: functional, cell-based, Homo sapiens; settings: Homo sapiens, NCI-H1793;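 further: cell growth inhibition, read out by a cell viability assay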
Description: SANGER: Inhibition of human NCI-H1793 cell growth in a cell viability assay.

NCI-H2030 = format: functional, cell-based, Homo sapiens; settings: Homo sapiens, NCI-H2030;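 further: growth inhibition of human NCI-H2030 cells, read out by a cell viability assay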
Description: SANGER: Inhibition of human NCI-H2030 cell growth in a cell viability assay.

NCI-H2170 = format: functional, cell-based, Homo sapiens; settings: Homo sapiens, NCI-H2170;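 further: cell viability assay measuring growth inhibition of human NCI-H2170 cancer cells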
Description: SANGER: Inhibition of human NCI-H2170 cell growth in a cell viability assay.

NCI-H2228 = format: functional, cell-based, Homo sapiens; settings: Homo sapiens, NCI-H2228;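 further: growth inhibition of human NCI-H2228 cells, read out by a cell viability assay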
Description: SANGER: Inhibition of human NCI-H2228 cell growth in a cell viability assay.

NOMO-1 = format: functional, cell-based; settings: Homo sapiens;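 further: growth inhibition of human NOMO-1 cells measured by a cell viability assay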
Description: SANGER: Inhibition of human NOMO-1 cell growth in a cell viability assay.

NOS-1 = format: functional, cell-based, Homo sapiens; settings: Homo sapiens, NOS-1;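 further: growth inhibition of the human NOS-1 cell line, read out with a cell viability assay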
Description: SANGER: Inhibition of human NOS-1 cell growth in a cell viability assay.

OVCAR-4 = format: functional, cell-based, Homo sapiens; settings: Homo sapiens, OVCAR-4;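 further: growth inhibition of human OVCAR-4 cells, measured with a cell viability assay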
Description: SANGER: Inhibition of human OVCAR-4 cell growth in a cell viability assay.

OVCAR-8 = format: functional, cell-based, Homo sapiens; settings: Homo sapiens, OVCAR-8;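 further: growth inhibition of human OVCAR-8 cells, read out by a cell viability assay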
Description: SANGER: Inhibition of human OVCAR-8 cell growth in a cell viability assay.

PANC-08-13 = format: functional, cell-based, Homo sapiens; settings: Homo sapiens, PANC-08-13;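 further: cell growth inhibition, measured with a cell viability assay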
Description: SANGER: Inhibition of human PANC-08-13 cell growth in a cell viability assay.

Panc1005 = format: functional, cell-based, Homo sapiens; settings: Homo sapiens, Panc1005;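 further: growth inhibition of human PANC-10-05 cells, measured by a cell viability assay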
Description: SANGER: Inhibition of human PANC-10-05 cell growth in a cell viability assay.

RCC10RGB = format: functional, cell-based, Homo sapiens; settings: Homo sapiens, RCC10RGB;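 further: growth inhibition of human RCC10RGB cells, read out by a cell viability assay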
Description: SANGER: Inhibition of human RCC10RGB cell growth in a cell viability assay.

RT-112 = format: functional, cell-based, Homo sapiens; settings: Homo sapiens, RT-112
Description: SANGER: Inhibition of human RT-112 cell growth in a cell viability assay.

SF-268 = format: functional, cell-based, Homo sapiens; settings: Homo sapiens, SF-268;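 further: growth inhibition of SF-268 cells determined with a cell viability assay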
Description: SANGER: Inhibition of human SF268 cell growth in a cell viability assay.

SK-MEL-2 = format: functional, cell-based, Homo sapiens; settings: Homo sapiens, SK-MEL-2
Description: SANGER: Inhibition of human SK-MEL-2 cell growth in a cell viability assay.

SK-MEL-28 = format: functional, cell-based; settings: Homo sapiens;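 further: growth inhibition of human SK-MEL-28 cells, read out with a cell viability assay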
Description: SANGER: Inhibition of human SK-MEL-28 cell growth in a cell viability assay.

SKG-IIIa = format: functional, cell-based, Homo sapiens; settings: Homo sapiens, SKG-IIIa;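 further: cell growth inhibition, read out with a cell viability assay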
Description: SANGER: Inhibition of human SKG-IIIa cell growth in a cell viability assay.

SW48 = format: functional, cell-based, Homo sapiens; settings: Homo sapiens, SW48;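 further: growth inhibition of SW48 cells, read out with a cell viability assay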
Description: SANGER: Inhibition of human SW48 cell growth in a cell viability assay.

A2780 = format: functional, cell-based, Homo sapiens; settings: Homo sapiens, A2780;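 further: growth inhibition of A2780 cells, read out with a cell viability assay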
Description: SANGER: Inhibition of human A2780 cell growth in a cell viability assay.

AM-38 = format: functional, cell-based, Homo sapiens; settings: Homo sapiens, AM-38;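 further: growth inhibition of AM-38 cells of human origin, read out by a cell viability assay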
Description: SANGER: Inhibition of human AM-38 cell growth in a cell viability assay.

AU565 = format: functional, cell-based, Homo sapiens; settings: Homo sapiens, AU565;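 further: cell viability assay measuring growth inhibition of human AU565 cells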
Description: SANGER: Inhibition of human AU565 cell growth in a cell viability assay.

BFTC-905 = format: functional, cell-based, Homo sapiens; settings: Homo sapiens, BFTC-905
Description: SANGER: Inhibition of human BFTC-905 cell growth in a cell viability assay.

BXPC-3 = format: functional, cell-based, Homo sapiens; settings: Homo sapiens, BXPC-3;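 further: growth inhibition of human BxPC-3 cells, read out by a cell viability assay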
Description: SANGER: Inhibition of human BxPC-3 cell growth in a cell viability assay.

CAL-72 = format: functional, cell-based, Homo sapiens; settings: Homo sapiens, CAL-72;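 further: cell viability assay measuring inhibition of proliferation in the CAL-72 cell line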
Description: SANGER: Inhibition of human CAL-72 cell growth in a cell viability assay.

CAPAN-1 = format: functional, cell-based, Homo sapiens; settings: Homo sapiens, CAPAN-1;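 further: growth suppression of CAPAN-1 cells, read out by a cell viability assay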
Description: SANGER: Inhibition of human CAPAN-1 cell growth in a cell viability assay.

COLO-680N = format: functional, cell-based, Homo sapiens; settings: Homo sapiens, COLO-680N;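 further: cell viability assay used to measure inhibition of COLO-680N cell growth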
Description: SANGER: Inhibition of human COLO-680N cell growth in a cell viability assay.

In the case of COc1cc([C@@H]2c3cc4c(cc3[C@@H](O[C@@H]3O[C@@H]5CO[C@@H](C)O[C@H]5[C@H](O)[C@H]3O)[C@H]3COC(=O)[C@H]23)OCO4)cc(OC)c1O [ETOPOSIDE], the IC50 (COLO-792) is reported as > 16000 nM, the IC50 (CTB-1) is reported as 1690 nM and the IC50 (DMS-114) is reported as > 16000 nM. For the same compound, the IC50 (DOK) was > 16000 nM, the IC50 (DSH1) was 2360 nM and the IC50 (ES3) was 628 nM. For the same compound, the IC50 (ES4) was 521 nM, the IC50 (H4) was 297 nM and the IC50 (HCC1419) was > 16000 nM. For the same compound, the IC50 (HCC2157) was > 16000 nM, the IC50 (HEC-1) was 2370 nM and the IC50 (HOP-62) was 524 nM. The IC50 (HT1197) was > 16000 nM, the IC50 (Hs-578T) was > 16000 nM and the IC50 (HuO-3N1) was 7710 nM. The IC50 (JAR) was > 16000 nM, the IC50 (KM-H2) was 1670 nM and the IC50 (KYSE-140) was 4.92 µM. The IC50 (KYSE-150 cell line) was 530 nM, the IC50 (KYSE-450) was 3690 nM and the IC50 (LCLC-103H cell line) was 651 nM. The IC50 (LS-123) was 4.02 µM, the IC50 (MDA-MB-231) was 9.09 µM and the IC50 (MFH-ino) was 751 nM. For the same compound, the IC50 (MSTO-211H) was > 16000 nM, the IC50 (NCI-H1793) was 5310 nM and the IC50 (NCI-H2030) was 230 nM. The IC50 (NCI-H2170) was 1850 nM, the IC50 (NCI-H2228) was 2660 nM and the IC50 (NOMO-1) was 2190 nM. For the same compound, the IC50 (NOS-1) was 3580 nM, the IC50 (OVCAR-4) was > 16000 nM and the IC50 (OVCAR-8) was 1090 nM. For the same compound, the IC50 (PANC-08-13) was > 16000 nM, the IC50 (Panc1005) was 2890 nM and the IC50 (RCC10RGB) was > 16000 nM. For the same compound, the IC50 (RT-112) was 621 nM, the IC50 (SF-268) was 2550 nM and the IC50 (SK-MEL-2) was > 16000 nM. The IC50 (SK-MEL-28) was > 16000 nM, the IC50 (SKG-IIIa) was > 16000 nM and the IC50 (SW48) was 869 nM. The IC50 (A2780) was 1110 nM, the IC50 (AM-38) was 3670 nM and the IC50 (AU565) was 2610 nM. For the same compound, the IC50 (BFTC-905) was 426 nM, the IC50 (BXPC-3) was > 16000 nM and the IC50 (CAL-72) was > 16000 nM. The IC50 (CAPAN-1) was 1250 nM and the IC50 (COLO-680N) was 8260 nM.
For C=CCNC1=C2C[C@@H](C)C[C@H](OC)[C@H](O)[C@@H](C)/C=C(\C)[C@H](OC(N)=O)[C@@H](OC)/C=C\C=C(/C)C(=O)NC(=CC1=O)C2=O [TANESPIMYCIN], the IC50 (COLO-792) was 313 nM, the IC50 (CTB-1) was 328 nM and the IC50 (DMS-114) was > 1000 nM. For the same compound, the IC50 (DOK) was 49 nM, the IC50 (DSH1) was 38.1 nM and the IC50 (ES3) was 591 nM. For the same compound, the IC50 (ES4) was > 1000 nM, the IC50 (H4) was 30.9 nM and the IC50 (HCC1419) was 146 nM. The IC50 (HCC2157) was 388 nM, the IC50 (HEC-1) was 65.9 nM and the IC50 (HOP-62) was 499 nM. For the same compound, the IC50 (HT1197) was > 1000 nM, the IC50 (Hs-578T) was 72.1 nM and the IC50 (HuO-3N1) was 52.4 nM. The IC50 (JAR) was > 1000 nM, the IC50 (KM-H2) was > 1000 nM and the IC50 (KYSE-140) was > 1 µM. For the same compound, the IC50 (KYSE-150 cell line) was 52.4 nM, the IC50 (KYSE-450) was 986 nM and the IC50 (LCLC-103H cell line) was > 1000 nM. For the same compound, the IC50 (LS-123) was > 1 µM, the IC50 (MDA-MB-231) was > 1 µM and the IC50 (MFH-ino) was > 1000 nM. It also gave an IC50 (MSTO-211H) of 558 nM, an IC50 (NCI-H1793) of 385 nM and an IC50 (NCI-H2030) of 54.1 nM. The IC50 (NCI-H2170) was 175 nM, the IC50 (NCI-H2228) was 354 nM and the IC50 (NOMO-1) was > 1000 nM. The IC50 (NOS-1) was 975 nM, the IC50 (OVCAR-4) was > 1000 nM and the IC50 (OVCAR-8) was 86.2 nM. For the same compound, the IC50 (PANC-08-13) was 532 nM, the IC50 (Panc1005) was 412 nM and the IC50 (RCC10RGB) was > 1000 nM. For the same compound, the IC50 (RT-112) was 140 nM, the IC50 (SF-268) was 643 nM and the IC50 (SK-MEL-2) was 90.6 nM. It also gave an IC50 (SK-MEL-28) of 113 nM, an IC50 (SKG-IIIa) of 49.9 nM and an IC50 (SW48) of 50.4 nM. For the same compound, the IC50 (A2780) was 25.3 nM, the IC50 (AM-38) was 208 nM and the IC50 (AU565) was > 1000 nM. The IC50 (BFTC-905) was 315 nM, the IC50 (BXPC-3) was 160 nM and the IC50 (CAL-72) was > 1000 nM. It also gave an IC50 (CAPAN-1) of 248 nM and an IC50 (COLO-680N) of 194 nM.
In the case of C[C@]1(O)C[C@@H](c2nc(-c3ccc4ccc(-c5ccccc5)nc4c3)c3c(N)nccn32)C1 [LINSITINIB], the IC50 (COLO-792) is reported as > 2560 nM, the IC50 (CTB-1) is reported as > 2560 nM and the IC50 (DMS-114) is reported as > 2560 nM. For the same compound, the IC50 (DOK) was 556 nM, the IC50 (DSH1) was > 2560 nM and the IC50 (ES3) was 1120 nM. For the same compound, the IC50 (ES4) was 410 nM, the IC50 (H4) was > 2560 nM and the IC50 (HCC1419) was > 2560 nM. For the same compound, the IC50 (HCC2157) was > 2560 nM, the IC50 (HEC-1) was > 2560 nM and the IC50 (HOP-62) was > 2560 nM. The IC50 (HT1197) was > 2560 nM, the IC50 (Hs-578T) was > 2560 nM and the IC50 (HuO-3N1) was > 2560 nM. For the same compound, the IC50 (JAR) was > 2560 nM, the IC50 (KM-H2) was > 2560 nM and the IC50 (KYSE-140) was > 2.56 µM. For the same compound, the IC50 (KYSE-150 cell line) was > 2560 nM, the IC50 (KYSE-450) was > 2560 nM and the IC50 (LCLC-103H cell line) was > 2560 nM. For the same compound, the IC50 (LS-123) was > 2.56 µM, the IC50 (MDA-MB-231) was > 2.56 µM and the IC50 (MFH-ino) was > 2560 nM. For the same compound, the IC50 (MSTO-211H) was > 2560 nM, the IC50 (NCI-H1793) was > 2560 nM and the IC50 (NCI-H2030) was > 2560 nM. For the same compound, the IC50 (NCI-H2170) was > 2560 nM, the IC50 (NCI-H2228) was > 2560 nM and the IC50 (NOMO-1) was > 2560 nM. The IC50 (NOS-1) was 523 nM, the IC50 (OVCAR-4) was > 2560 nM and the IC50 (OVCAR-8) was > 2560 nM. For the same compound, the IC50 (PANC-08-13) was 864 nM, the IC50 (Panc1005) was > 2560 nM and the IC50 (RCC10RGB) was > 2560 nM. The IC50 (RT-112) was > 2560 nM, the IC50 (SF-268) was > 2560 nM and the IC50 (SK-MEL-2) was > 2560 nM. For the same compound, the IC50 (SK-MEL-28) was > 2560 nM, the IC50 (SKG-IIIa) was > 2560 nM and the IC50 (SW48) was > 2560 nM. The IC50 (A2780) was > 2560 nM, the IC50 (AM-38) was > 2560 nM and the IC50 (AU565) was > 2560 nM. The IC50 (BFTC-905) was 468 nM, the IC50 (BXPC-3) was > 2560 nM and the IC50 (CAL-72) was > 2560 nM. The IC50 (CAPAN-1) was > 2560 nM and the IC50 (COLO-680N) was > 2560 nM.

— ChEMBL document CHEMBL1201861, “Genomics of Drug Sensitity in Cancer screening data, Wellcome Trust Sanger Institute”
